Source: the CheMixHub viscosity set
Values joined by “and” are separate entries in the source; they are usually repeats but may differ in a detail not shown here. Equal entries are not always repeated.

Test: xn = mol fraction of the nth substance listed

Nc1ccc(S(=O)(=O)O)cc1 + O
101 kPa
Settings | viscosity [mPa·s]
298.15 K, x1 = 0.0001913 | 0.8949
298.15 K, x1 = 0.0003038 | 0.8969
298.15 K, x1 = 0.0004208 | 0.899
298.15 K, x1 = 0.0005447 | 0.8999
298.15 K, x1 = 0.0006999 | 0.9031
308.15 K, x1 = 0.000111 | 0.7215
308.15 K, x1 = 0.0001913 | 0.7221
308.15 K, x1 = 0.0003038 | 0.724
308.15 K, x1 = 0.0003839 | 0.7252
308.15 K, x1 = 0.0004208 | 0.7255
308.15 K, x1 = 0.0006999 | 0.7281
318.15 K, x1 = 0.0002046 | 0.5999
318.15 K, x1 = 0.0003685 | 0.601
318.15 K, x1 = 0.0005157 | 0.6033
318.15 K, x1 = 0.0006087 | 0.6041
318.15 K, x1 = 0.0006767 | 0.6049
318.15 K, x1 = 0.0007735 | 0.6055

Nc1ccc(S(N)(=O)=O)cc1 + O
viscosity [mPa·s], 101 kPa
Settings | x1 = 0.0001938 | x1 = 0.000331 | x1 = 0.0004378 | x1 = 0.0004556 | x1 = 0.000456 | x1 = 0.0005923 | x1 = 0.0007136
298.15 K | 0.8931 | 0.895 | 0.8965 | 0.897 | – | 0.899 | 0.9008
308.15 K | 0.7207 | 0.7224 | 0.7234 | 0.724 | – | 0.7254 | –
318.15 K | 0.5965 | 0.5979 | 0.5992 | – | 0.5993 | 0.6007 | 0.6015

O=C([O-])[C@H](O)[C@@H](O)[C@H](O)[C@H](O)CO.[Na+] + O
viscosity [mPa·s], 100 kPa
Settings | 298.15 K | 308.15 K | 318.15 K
x1 = 0.0004 | 0.8985 | 0.7295 | 0.6062
x1 = 0.0007 | 0.9101 | 0.7386 | 0.6138
x1 = 0.001 | 0.9193 | 0.7501 | 0.6218

OCCN(CCO)CCO + O
viscosity
Settings | 293.15 K | 298.15 K | 303.15 K | 308.15 K | 313.15 K | 323.15 K
101 kPa, x1 = 0.029 | 2 mPa·s | – | – | – | – | 0.988 mPa·s
101 kPa, x1 = 0.0434 | – | 2.499 mPa·s | 2.194 mPa·s | – | 1.661 mPa·s | –
101 kPa, x1 = 0.0649 | – | 3.802 mPa·s | 3.446 mPa·s | – | 2.406 mPa·s | –
101 kPa, x1 = 0.0966 | – | 6.839 mPa·s | 5.658 mPa·s | – | 4.005 mPa·s | –
101 kPa, x1 = 0.11 | 8.51 mPa·s | – | – | – | – | 3.24 mPa·s
101 kPa, x1 = 0.1312 | – | 11.65 mPa·s | 9.419 mPa·s | – | 6.419 mPa·s | –
101 kPa, x1 = 0.1769 | – | 20.76 mPa·s | 16.89 mPa·s | – | 10.97 mPa·s | –
101 kPa, x1 = 0.27 | 64.6 mPa·s | – | – | – | – | 14.8 mPa·s
101 kPa, x1 = 0.2724 | – | 54.52 mPa·s | 41.37 mPa·s | – | 25.21 mPa·s | –
101 kPa, x1 = 0.3481 | – | 96.45 mPa·s | 73.09 mPa·s | – | 41.11 mPa·s | –
101 kPa, x1 = 0.4784 | – | 187.3 mPa·s | 131.4 mPa·s | – | 70.8 mPa·s | –
101 kPa, x1 = 0.5814 | – | 278.1 mPa·s | 187.2 mPa·s | – | 97.64 mPa·s | –
101 kPa, x1 = 0.7166 | – | 390.4 mPa·s | 269.9 mPa·s | – | 138.2 mPa·s | –
101 kPa, x1 = 0.8347 | – | 472.7 mPa·s | 328.9 mPa·s | – | 166.2 mPa·s | –
101 kPa, x1 = 0.9177 | – | 542.7 mPa·s | 369.7 mPa·s | – | 184.6 mPa·s | –
101 kPa, x1 = 0.9724 | – | 585.3 mPa·s | 396.2 mPa·s | – | 196.3 mPa·s | –
101.3 kPa, x1 = 0.0064 | 1.141 mPa·s | 0.998 mPa·s | 0.872 mPa·s | 0.765 mPa·s | 0.664 mPa·s | 0.555 mPa·s
101.3 kPa, x1 = 0.0134 | 1.33 mPa·s | 1.161 mPa·s | 1.039 mPa·s | 0.914 mPa·s | 0.801 mPa·s | 0.688 mPa·s
101.3 kPa, x1 = 0.0294 | – | 1.789 mPa·s | 1.559 mPa·s and 1.57 mPa·s | 1.369 mPa·s | – | 0.988 mPa·s

OCCOCCOCCOCCOCCO + O
viscosity [mPa·s], 100 kPa
Settings | 293.15 K | 298.15 K | 303.15 K | 308.15 K | 313.15 K | 318.15 K | 323.15 K
x2 = 0.023 | 70.88 | 54.12 | 42.28 | 33.63 | 27.22 | 22.34 | 18.57
x2 = 0.081 | 72.83 | 55.72 | 43.21 | 34.21 | 27.55 | 22.56 | 18.68
x2 = 0.144 | 71.38 | 54.33 | 42.28 | 33.53 | 27.01 | 22.11 | 18.34
x2 = 0.166 | 70.74 | 53.66 | 41.76 | 33.1 | 26.67 | 21.83 | 18.08

COCCOCCO + O=C1CCCN1
298.15 K, 101 kPa
Settings | viscosity [mPa·s]
x1 = 0.0019 | 14.15
x1 = 0.0054 | 14.04
x1 = 0.0129 | 13.78
x1 = 0.0209 | 13.49
x1 = 0.0311 | 13.16
x1 = 0.0482 | 12.66
x1 = 0.0682 | 12.11
x1 = 0.0864 | 11.61
x1 = 0.1139 | 10.99
x1 = 0.1615 | 9.962
x1 = 0.2074 | 9.178
x1 = 0.2531 | 8.449
x1 = 0.2817 | 8.045
x1 = 0.3289 | 7.543
x1 = 0.3814 | 7.009
x1 = 0.4684 | 6.246
x1 = 0.489 | 6.106
x1 = 0.5396 | 5.741
x1 = 0.6097 | 5.295
x1 = 0.6687 | 4.976
x1 = 0.7169 | 4.749
x1 = 0.7652 | 4.502
x1 = 0.8144 | 4.294
x1 = 0.8697 | 4.069
x1 = 0.8962 | 3.972
x1 = 0.9239 | 3.85
x1 = 0.9469 | 3.745
x1 = 0.9719 | 3.658
x2 = 0.0058 | 3.533
x2 = 0.0141 | 3.561

Cc1ccccc1C + O=C1CCCO1
viscosity [mPa·s], 101.33 kPa
Settings | x2 = 0.1199 | x2 = 0.1801 | x2 = 0.2998 | x2 = 0.4005 | x2 = 0.5044 | x2 = 0.5994 | x2 = 0.7011 | x2 = 0.7885 | x2 = 0.9087
293.15 K | 0.907 | 0.955 | 1.054 | 1.145 | 1.248 | 1.351 | 1.472 | 1.584 | 1.75
298.15 K | 0.854 | 0.901 | 0.996 | 1.081 | 1.175 | 1.269 | 1.379 | 1.48 | 1.629
303.15 K | 0.795 | 0.839 | 0.927 | 1.006 | 1.093 | 1.178 | 1.276 | 1.367 | 1.502
308.15 K | 0.747 | 0.787 | 0.867 | 0.937 | 1.014 | 1.09 | 1.179 | 1.263 | 1.39
